From PMC4286194 (Biochemical Journal, 2015) come the findings set out here.

In one test the target is T1, IKK beta (Homo sapiens, UniProt O14920).
T1 sequence (O14920 1-756): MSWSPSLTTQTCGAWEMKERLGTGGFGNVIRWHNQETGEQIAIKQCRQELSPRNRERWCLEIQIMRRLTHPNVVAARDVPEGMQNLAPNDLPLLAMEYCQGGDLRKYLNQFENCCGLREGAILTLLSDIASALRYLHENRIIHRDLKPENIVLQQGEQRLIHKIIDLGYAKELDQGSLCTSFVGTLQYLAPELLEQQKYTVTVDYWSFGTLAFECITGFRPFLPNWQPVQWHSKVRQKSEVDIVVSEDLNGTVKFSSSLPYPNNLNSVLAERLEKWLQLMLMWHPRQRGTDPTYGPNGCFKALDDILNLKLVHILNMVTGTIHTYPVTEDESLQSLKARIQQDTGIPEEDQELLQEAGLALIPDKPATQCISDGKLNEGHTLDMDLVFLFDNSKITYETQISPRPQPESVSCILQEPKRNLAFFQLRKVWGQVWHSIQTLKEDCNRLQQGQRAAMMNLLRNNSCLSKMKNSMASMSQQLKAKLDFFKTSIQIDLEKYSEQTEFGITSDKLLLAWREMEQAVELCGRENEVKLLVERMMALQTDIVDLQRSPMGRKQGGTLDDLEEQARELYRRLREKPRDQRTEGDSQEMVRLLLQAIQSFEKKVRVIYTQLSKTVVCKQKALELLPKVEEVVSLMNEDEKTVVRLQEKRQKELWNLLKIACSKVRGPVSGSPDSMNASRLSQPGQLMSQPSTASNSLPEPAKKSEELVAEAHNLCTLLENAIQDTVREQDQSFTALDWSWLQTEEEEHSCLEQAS
Put plainly: Kinase profiling. The format is biochemical.

In the next test the target is MLK1 (Homo sapiens, UniProt P80192). Put plainly: Kinase profiling. The format is biochemical.
Chain of MLK1 (P80192 whole entry): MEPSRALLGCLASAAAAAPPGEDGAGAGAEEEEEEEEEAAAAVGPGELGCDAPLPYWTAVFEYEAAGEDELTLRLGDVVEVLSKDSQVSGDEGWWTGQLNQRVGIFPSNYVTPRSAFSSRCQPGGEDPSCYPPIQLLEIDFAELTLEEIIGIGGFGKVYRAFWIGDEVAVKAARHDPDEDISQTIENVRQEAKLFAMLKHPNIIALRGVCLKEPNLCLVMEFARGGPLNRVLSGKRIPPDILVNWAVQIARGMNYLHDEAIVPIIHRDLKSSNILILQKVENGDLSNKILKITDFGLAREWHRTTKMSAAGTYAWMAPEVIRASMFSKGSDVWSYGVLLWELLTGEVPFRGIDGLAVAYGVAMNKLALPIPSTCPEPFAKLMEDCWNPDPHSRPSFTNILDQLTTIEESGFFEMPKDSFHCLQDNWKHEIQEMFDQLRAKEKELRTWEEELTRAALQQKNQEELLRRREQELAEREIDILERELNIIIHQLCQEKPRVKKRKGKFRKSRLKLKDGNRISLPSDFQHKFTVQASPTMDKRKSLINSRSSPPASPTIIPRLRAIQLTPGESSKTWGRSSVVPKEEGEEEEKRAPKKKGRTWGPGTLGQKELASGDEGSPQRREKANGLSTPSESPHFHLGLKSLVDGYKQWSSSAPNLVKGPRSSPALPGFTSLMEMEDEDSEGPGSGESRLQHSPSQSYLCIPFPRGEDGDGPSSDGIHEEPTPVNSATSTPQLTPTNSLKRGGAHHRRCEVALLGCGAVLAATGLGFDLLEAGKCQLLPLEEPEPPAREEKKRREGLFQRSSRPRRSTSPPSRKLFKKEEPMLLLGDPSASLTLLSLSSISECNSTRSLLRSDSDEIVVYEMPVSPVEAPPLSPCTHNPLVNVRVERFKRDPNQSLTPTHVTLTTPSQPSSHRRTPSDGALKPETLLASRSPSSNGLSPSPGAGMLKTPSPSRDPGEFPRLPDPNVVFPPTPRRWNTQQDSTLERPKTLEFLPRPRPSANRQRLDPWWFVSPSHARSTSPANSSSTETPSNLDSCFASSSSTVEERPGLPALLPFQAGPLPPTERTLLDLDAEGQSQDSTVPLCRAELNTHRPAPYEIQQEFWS
For a further test, the target named is T2, GCK (Homo sapiens, UniProt Q12851).
T2 sequence (Q12851 1-820): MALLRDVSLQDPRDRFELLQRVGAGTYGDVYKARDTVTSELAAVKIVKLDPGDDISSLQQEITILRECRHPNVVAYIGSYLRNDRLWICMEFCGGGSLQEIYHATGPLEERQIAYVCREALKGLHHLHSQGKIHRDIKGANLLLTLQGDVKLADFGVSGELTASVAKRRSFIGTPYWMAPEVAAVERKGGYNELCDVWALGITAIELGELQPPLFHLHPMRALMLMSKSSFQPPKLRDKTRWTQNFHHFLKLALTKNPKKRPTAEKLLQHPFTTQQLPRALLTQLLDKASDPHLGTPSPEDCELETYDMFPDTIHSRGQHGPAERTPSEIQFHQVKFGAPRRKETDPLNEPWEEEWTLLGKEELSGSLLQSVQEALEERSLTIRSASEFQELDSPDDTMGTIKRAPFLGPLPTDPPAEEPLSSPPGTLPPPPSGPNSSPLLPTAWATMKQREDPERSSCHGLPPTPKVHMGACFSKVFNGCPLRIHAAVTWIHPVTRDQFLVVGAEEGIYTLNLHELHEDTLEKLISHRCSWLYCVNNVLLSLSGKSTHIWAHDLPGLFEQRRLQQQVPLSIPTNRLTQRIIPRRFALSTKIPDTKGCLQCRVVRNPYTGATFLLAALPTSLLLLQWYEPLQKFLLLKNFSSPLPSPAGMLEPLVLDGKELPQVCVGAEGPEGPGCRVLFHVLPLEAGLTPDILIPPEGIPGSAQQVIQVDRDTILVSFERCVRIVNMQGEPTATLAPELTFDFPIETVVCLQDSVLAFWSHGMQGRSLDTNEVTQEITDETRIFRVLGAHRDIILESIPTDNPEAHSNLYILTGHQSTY
Put plainly: Kinase profiling. The format is biochemical.

A further test addresses p38 alpha MAPK (Homo sapiens, UniProt Q16539). Put plainly: Kinase profiling. In kind it is biochemical.
The test system of test [1] is Bone-marrow-derived macrophages. Nature of the test: CREB-dependent gene transcription (qPCR). In kind it is cell-based, mouse. Particulars: 3 μM bosutinib or 0.3 μM dasatinib; LPS or Pam3CSK4. As to the method:
mRNA was extracted from cells using the MicroElute Total RNA kit following the manufacturers’ instructions (Omega Bio-Tek). cDNA was generated from 0.5 μg of total RNA using the iScript cDNA synthesis kit and quantified by quantitative real-time PCR (qPCR) using the SsoFast EvaGreen Supermix on a CFX384 real-time system (Bio-Rad Laboratories). The relative expression of each gene was calculated from CT values using the Pfaffl method and was normalized against the mRNA levels of housekeeping genes including 18S RNA and GAPDH. Results are reported relative to untreated control cells, which were set to 1.

Another test deals with PAK5 (Homo sapiens, UniProt Q9P286). Nature of the test: Kinase profiling. In kind it is biochemical.
Chain of PAK5 (Q9P286 whole entry): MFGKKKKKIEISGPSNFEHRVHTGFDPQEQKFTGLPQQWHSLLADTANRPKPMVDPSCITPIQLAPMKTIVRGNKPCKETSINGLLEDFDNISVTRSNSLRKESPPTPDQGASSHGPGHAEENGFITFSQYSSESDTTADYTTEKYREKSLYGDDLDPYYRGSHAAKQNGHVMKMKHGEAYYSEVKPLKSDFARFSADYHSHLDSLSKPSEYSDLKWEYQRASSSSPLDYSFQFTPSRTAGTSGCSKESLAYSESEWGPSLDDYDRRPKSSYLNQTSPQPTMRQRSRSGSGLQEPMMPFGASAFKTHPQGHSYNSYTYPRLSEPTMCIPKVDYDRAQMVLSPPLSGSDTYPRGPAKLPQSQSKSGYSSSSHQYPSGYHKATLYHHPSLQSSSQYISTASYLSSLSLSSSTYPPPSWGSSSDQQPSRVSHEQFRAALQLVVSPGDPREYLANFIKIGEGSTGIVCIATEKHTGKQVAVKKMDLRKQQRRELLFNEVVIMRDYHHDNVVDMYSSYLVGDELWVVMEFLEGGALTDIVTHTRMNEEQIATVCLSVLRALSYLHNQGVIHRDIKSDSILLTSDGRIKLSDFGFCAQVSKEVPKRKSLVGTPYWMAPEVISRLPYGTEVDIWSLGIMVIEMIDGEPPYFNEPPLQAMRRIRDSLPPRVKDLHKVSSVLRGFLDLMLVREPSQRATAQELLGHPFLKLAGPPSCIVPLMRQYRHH
For the next test, the target named is T3, SGK1 (Homo sapiens, UniProt O00141).
T3 sequence (O00141 1-431): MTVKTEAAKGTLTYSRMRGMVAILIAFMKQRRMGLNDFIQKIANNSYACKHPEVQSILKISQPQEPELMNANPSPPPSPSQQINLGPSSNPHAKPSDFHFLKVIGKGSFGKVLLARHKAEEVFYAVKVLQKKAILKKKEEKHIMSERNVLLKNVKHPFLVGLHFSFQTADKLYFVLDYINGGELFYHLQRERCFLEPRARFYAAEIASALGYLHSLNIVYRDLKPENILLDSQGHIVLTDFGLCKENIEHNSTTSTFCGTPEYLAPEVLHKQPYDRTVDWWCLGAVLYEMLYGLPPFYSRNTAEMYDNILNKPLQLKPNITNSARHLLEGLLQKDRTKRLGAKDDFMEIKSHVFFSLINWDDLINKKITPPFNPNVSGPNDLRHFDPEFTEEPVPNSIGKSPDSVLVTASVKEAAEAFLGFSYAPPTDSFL
Nature of the test: Kinase profiling. In kind it is biochemical.

The target of another test is CLK2 (Homo sapiens, UniProt P49760). Nature of the test: Kinase profiling. In kind it is biochemical.
Chain of CLK2 (P49760 whole entry): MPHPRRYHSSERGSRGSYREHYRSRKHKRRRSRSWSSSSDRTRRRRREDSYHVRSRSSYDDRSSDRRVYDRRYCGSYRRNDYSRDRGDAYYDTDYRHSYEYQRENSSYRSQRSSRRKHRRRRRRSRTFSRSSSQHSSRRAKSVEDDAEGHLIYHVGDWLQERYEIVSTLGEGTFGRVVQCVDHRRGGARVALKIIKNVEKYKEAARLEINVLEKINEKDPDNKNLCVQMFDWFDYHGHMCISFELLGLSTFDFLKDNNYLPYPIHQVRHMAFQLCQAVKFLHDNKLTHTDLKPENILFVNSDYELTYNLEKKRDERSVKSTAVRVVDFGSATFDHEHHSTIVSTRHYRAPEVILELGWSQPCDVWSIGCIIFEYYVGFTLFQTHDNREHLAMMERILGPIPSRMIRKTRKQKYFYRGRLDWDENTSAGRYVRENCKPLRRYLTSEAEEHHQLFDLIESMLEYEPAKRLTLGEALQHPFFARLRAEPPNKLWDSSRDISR

Chain of p38 alpha MAPK (Q16539 whole entry): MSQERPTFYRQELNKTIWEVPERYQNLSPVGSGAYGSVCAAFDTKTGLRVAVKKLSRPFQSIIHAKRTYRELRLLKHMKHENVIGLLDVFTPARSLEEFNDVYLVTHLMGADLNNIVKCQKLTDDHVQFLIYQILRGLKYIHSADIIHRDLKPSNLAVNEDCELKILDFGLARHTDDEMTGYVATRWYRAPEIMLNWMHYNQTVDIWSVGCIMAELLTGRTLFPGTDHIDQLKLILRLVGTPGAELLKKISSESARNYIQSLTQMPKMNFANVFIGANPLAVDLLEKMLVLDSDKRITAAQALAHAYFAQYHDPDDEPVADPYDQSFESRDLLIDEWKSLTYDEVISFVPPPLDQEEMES

By remaining activity is commonly meant the signal under treatment as a percentage of the control signal. As to `COc1cc(Nc2c(C#N)cnc3cc(OCCCN4CCN(C)CC4)c(OC)cc23)c(Cl)cc1Cl` [Bosutinib, bosutinib], the remaining activity at 0.1 µM on IKK beta was 92 ± 15%; at MLK1, 52 ± 9%; at GCK, 9 ± 2%; on p38 alpha MAPK, 97 ± 4%; on PAK5, 105 ± 18%; on SGK1, 98 ± 20%. Further, at CLK2, the remaining activity at 0.1 µM turned out to be 75 ± 9%. Further, the remaining activity at 1 µM on MLK1 stood at 18 ± 4%; at GCK it was 4%; on p38 alpha MAPK, 72 ± 3%; on PAK5, 129 ± 5%; at SGK1 it was 100 ± 2%; on CLK2, 23%. Also, in test [1], the “Transcription of CREB-dependent genes IL-10, Nurr77 and c-FOS” value is “elevated the transcription”.
On to `Cc1nc(Nc2ncc(C(=O)Nc3c(C)cccc3Cl)s2)cc(N2CCN(CCO)CC2)n1` [Dasatinib], for which the remaining activity at 0.1 µM at IKK beta turned out to be 97 ± 21%; at MLK1, 72 ± 1%; on GCK, 95 ± 7%; at p38 alpha MAPK, 79 ± 15%; at PAK5, 131 ± 12%; at SGK1 it was 87 ± 11%. For the same compound, on CLK2, the remaining activity at 0.1 µM was determined as 120 ± 6%. The remaining activity at 1 µM on IKK beta (1 µM) turned out to be 99 ± 9%; at MLK1, 41 ± 2%; at GCK, 56 ± 8%; on p38 alpha MAPK, 29 ± 2%; at PAK5, 138 ± 7%; at SGK1, 96 ± 7%. Further, on CLK2, the remaining activity at 1 µM stood at 121 ± 6%. Also, in test [1], the “Transcription of CREB-dependent genes IL-10, Nurr77 and c-FOS” value is “elevated the transcription”.
